The source of these data is patent US9765075B2, “Substituted bridged urea analogs as sirtuin modulators” (GLAXOSMITHKLINE LLC, priority 2013, dated 2017).

The target in the test is T1, SIRT1 (Homo sapiens, UniProt Q96EB6).
T1 sequence (Q96EB6 1-747): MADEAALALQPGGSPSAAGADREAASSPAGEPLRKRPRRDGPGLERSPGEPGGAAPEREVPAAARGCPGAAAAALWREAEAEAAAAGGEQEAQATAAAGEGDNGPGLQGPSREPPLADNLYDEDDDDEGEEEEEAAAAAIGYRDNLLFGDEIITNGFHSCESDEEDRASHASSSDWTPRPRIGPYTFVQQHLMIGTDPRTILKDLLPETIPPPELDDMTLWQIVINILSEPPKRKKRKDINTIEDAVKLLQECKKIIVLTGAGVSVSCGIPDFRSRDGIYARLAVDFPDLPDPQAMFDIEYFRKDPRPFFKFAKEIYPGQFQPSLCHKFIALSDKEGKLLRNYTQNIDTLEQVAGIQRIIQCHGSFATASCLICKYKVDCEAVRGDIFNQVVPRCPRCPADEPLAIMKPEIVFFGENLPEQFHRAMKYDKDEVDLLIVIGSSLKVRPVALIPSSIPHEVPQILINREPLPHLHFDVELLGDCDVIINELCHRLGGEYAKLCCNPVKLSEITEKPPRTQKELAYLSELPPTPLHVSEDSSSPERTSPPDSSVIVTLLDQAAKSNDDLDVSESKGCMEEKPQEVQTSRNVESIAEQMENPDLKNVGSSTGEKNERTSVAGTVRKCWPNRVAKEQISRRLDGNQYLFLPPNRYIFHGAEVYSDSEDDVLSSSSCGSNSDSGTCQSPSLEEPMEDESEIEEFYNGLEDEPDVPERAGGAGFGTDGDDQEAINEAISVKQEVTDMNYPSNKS
As to the kind of experiment: Trp mass spectrometry assay (SIRT1 activation). The conditions noted are these: for Emax: percent maximum fold activation of SIRT1, read-out: Tryp % Fold Act. In kind it is biochemical. In short, it runs like this:
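N-His-tagged SIRT1 (10 nM), expressed in E. coli, was incubated with 0.5 μM Ac-RHKK(Ac)W-NH2 peptide and 120 μM NAD+ for 25 min at 25 °C in HEPES pH 7.5 with […]. The reaction was stopped with formic acid and O-acetyl-ADP-ribose or deacetylated peptide was quantified by mass spectrometry. Results are given as EC1.5 and percent maximal activation relative to DMSO control.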

Where [1] appears, read: concentration of test compound that results in 150% activation of SIRT1, Trp peptide substrate.
Where [2] appears, read: Trp mass spectrometry assay, EC1.5 = concentration of test compound that results in 150% activation of SIRT1.
The mark [3] stands for this setting: Trp mass spectrometry assay, EC1.5 = concentration giving 150% activation of SIRT1.

Like-named read-outs stand apart in the source and are kept apart here.

On to `O=C(Nc1ccncn1)N1c2nc(-c3cccnc3)ccc2N2CCC[C@H]1C2` [Example 456], for which the “Tryp AVG EC1.5 (μM)” value under setting [1] is “B (EC1.5 1-25 μM)”. Also, the Emax (Trp peptide substrate) is at least 150%.
As to `O=C(Nc1ccc(F)cn1)N1c2nc(-c3cccc(C(F)(F)F)c3)ccc2N2CC[C@H]1C2` [Example 46], the Emax (Trp mass spectrometry assay) is at least 150%.
The same measure, in the same setting: next, `Cc1cnc(NC(=O)N2c3nc(-c4cccc(C(F)(F)F)c4)ccc3N3CC[C@H]2C3)nc1-c1ccccc1` [Example 79]: at least 150%.
Turning to `O=C(Nc1cncc(F)c1)N1c2nc(N3CC[C@H](F)C3)ccc2S(=O)(=O)N2CC[C@H]1C2` [Example 469], the “Tryp AVG EC1.5 (μM)” value under setting [1] was “C (EC1.5>25 μM)”. Further, the Emax (Trp peptide substrate) is below 150%.
For `O=C(Nc1ccncc1)N1c2nc(-c3cccc(Cl)c3)ccc2N2CC[C@H]1C2` [Example 122], under setting [2], the “Tryp AVG EC1.5 (μM)” value was “A (EC1.5<1 μM)”. For the same compound, the Emax (Trp mass spectrometry assay) was at least 150%.
With `CS(=O)(=O)c1cncc(-c2ccc3c(n2)N(C(=O)Nc2ccncn2)[C@H]2CCCN3C2)c1` [Example 379], the “Tryp AVG EC1.5 (μM)” value under setting [1] is on record as “A (EC1.5<1 μM)”. Moreover, the Emax (Trp peptide substrate) was at least 150%.
The corresponding values for `COc1cc(NC(=O)N2c3nc(-c4cccc(CC(O)CO)c4)ccc3N3CC[C@H]2C3)ncn1` (some centres unmarked) [Example 355] are “B (EC1.5 1-25 μM)” and at least 150%.
Consider `O=C(Nc1cnccn1)N1c2nc(-c3cccc(C(F)(F)F)c3)ccc2N2CCC[C@H]1C2` [Example 27], for which, under “Trp mass spectrometry assay”, the Emax was at least 150%.
Turning to `O=C(Nc1cncc(-c2cnco2)c1)N1c2nc(-c3cncc(F)c3)ccc2N2CC[C@H]1C2` [Example 716], the “Tryp AVG EC1.5 (μM)” value under setting [3] is on record as “B (EC1.5 1-25 μM)”. Under “Trp mass spectrometry assay”, the Emax is at least 150%.
Take `O=C(Nc1ccnc(OC[C@H](O)CO)c1)N1c2nc(-c3cccc(Cl)c3)ccc2N2CC[C@H]1C2` [Example 66]: the Emax (Trp mass spectrometry assay) was at least 150%.
With `Cc1ccc(-c2ccc3c(n2)N(C(=O)Nc2ccccn2)[C@H]2CCCN3C2)cn1` [Example 465], under setting [1], the “Tryp AVG EC1.5 (μM)” value is on record as “B (EC1.5 1-25 μM)”. Besides, the Emax (Trp peptide substrate) is at least 150%.
In the case of `O=C(Nc1cccc(Br)n1)N1c2nc(-c3cccc(C(F)(F)F)c3)ccc2N2CC[C@H]1C2` [Example 652], under setting [3], the “Tryp AVG EC1.5 (μM)” value is given as “A (EC1.5<1 μM)”. For the same compound, where the note is “Trp mass spectrometry assay”, the Emax was at least 150%.
In the case of `Cn1ncc2cc(NC(=O)N3c4nc(-c5cccc(C#N)c5)ccc4N4CC[C@H]3C4)ccc21` [Example 184], the “Tryp AVG EC1.5 (μM)” value under setting [2] is on record as “A (EC1.5<1 μM)”. Besides, the Emax (Trp mass spectrometry assay) is at least 150%.
As to `O=C(Nc1ccc(F)cn1)N1c2nc(-c3cccc(F)c3)ccc2N2CC[C@H]1C2` [Example 59], the Emax (Trp mass spectrometry assay) is at least 150%.
Regarding `O=C(Nc1ccccn1)N1c2nc(-c3cccc(Cl)c3)ccc2N2CCC[C@H]1C2` [Example 387], the “Tryp AVG EC1.5 (μM)” value under setting [1] was “A (EC1.5<1 μM)”. The Emax (Trp peptide substrate) was at least 150%.
For the compound `COc1cc(NC(=O)N2c3nc(-c4cncc(C(F)(F)F)c4)ccc3N3C[C@@H](O)[C@H]2C3)ncn1` [Example 696], under setting [3], the “Tryp AVG EC1.5 (μM)” value is listed as “B (EC1.5 1-25 μM)”. The Emax (Trp mass spectrometry assay) was at least 150%.
`O=C(Nc1cnc(OC[C@H](O)CO)cn1)N1c2nc(-c3cccc(C(F)(F)F)c3)ccc2N2CC[C@H]1C2` [Example 18]: the Emax (Trp mass spectrometry assay) was at least 150%.
Turning to `NCc1cccc(NC(=O)N2c3nc(-c4cccc(C(F)(F)F)c4)ccc3N3CCC[C@H]2C3)c1` [Example 757], the “Tryp AVG EC1.5 (μM)” value under setting [3] was “A (EC1.5<1 μM)”. For the setting “Trp mass spectrometry assay”, the Emax was at least 150%.
Turning to `CC(C)(C)OC(=O)NCc1ccc(NC(=O)N2c3nc(-c4cccc(C(F)(F)F)c4)ccc3N3CC[C@H]2C3)cc1` [Example 793], the “Tryp AVG EC1.5 (μM)” value under setting [3] was “B (EC1.5 1-25 μM)”. The Emax (Trp mass spectrometry assay) is at least 150%.
On to `Cc1nc(NC(=O)N2c3nc(-c4cncc(Cl)c4)ccc3N3CCC2CC3)sc1C` [Example 554], for which, under setting [1], the “Tryp AVG EC1.5 (μM)” value is on record as “B (EC1.5 1-25 μM)”. Besides, where the note is “Trp peptide substrate”, the Emax was at least 150%.
Consider `Cc1ccc(-c2ccc3c(n2)N(C(=O)Nc2cccnn2)[C@H]2CCCN3C2)cn1` [Example 467], for which the “Tryp AVG EC1.5 (μM)” value under setting [1] was “B (EC1.5 1-25 μM)”. Further, the Emax (Trp peptide substrate) is at least 150%.
On the same counts, the results for `Cc1ccc(-c2ccc3c(n2)N(C(=O)Nc2cncc(F)c2)[C@H]2CCN3C2)cn1` [Example 224] are “B (EC1.5 1-25 μM)” and at least 150%.
Consider `O=C(Nc1cc(-c2cnco2)cc(-c2cnco2)c1)N1c2nc(-c3cccc(C(F)(F)F)c3)ccc2N2CC[C@H]1C2` [Example 743], for which the “Tryp AVG EC1.5 (μM)” value under setting [3] is reported as “A (EC1.5<1 μM)”. The Emax (Trp mass spectrometry assay) is at least 150%.
In the case of `N#Cc1cccc(-c2ccc3c(n2)N(C(=O)Nc2cncc(F)c2)[C@H]2CCCN3C2)c1` [Example 353], the “Tryp AVG EC1.5 (μM)” value under setting [1] was “A (EC1.5<1 μM)”. The Emax (Trp peptide substrate) was at least 150%.
For `COc1cc(NC(=O)N2c3nc(-c4cccc(C(F)(F)F)c4)ccc3N3C[C@@H](O)[C@H]2C3)ncn1` [Example 644], the “Tryp AVG EC1.5 (μM)” value under setting [3] is “B (EC1.5 1-25 μM)”. Besides, the Emax (Trp mass spectrometry assay) was at least 150%.
Take `N#Cc1cncc(-c2ccc3c(n2)N(C(=O)Nc2cncc(F)c2)[C@H]2CCCN3C2)c1` [Example 535]: the “Tryp AVG EC1.5 (μM)” value under setting [1] is recorded as “B (EC1.5 1-25 μM)”. The Emax (Trp peptide substrate) is at least 150%.
For the compound `Cc1cc(C)nc(NC(=O)N2c3nc(-c4cccc(Cl)c4)ccc3N3CC[C@H]2C3)c1` [Example 105], under setting [2], the “Tryp AVG EC1.5 (μM)” value is “B (EC1.5 1-25 μM)”. In addition, the Emax (Trp mass spectrometry assay) was at least 150%.
For the compound `O=C(Nc1cnccn1)N1c2nc(N3CCCC(C(F)(F)F)C3)ccc2N2CCC[C@H]1C2` (some centres unmarked) [Example 293], the “Tryp AVG EC1.5 (μM)” value under setting [1] is listed as “A (EC1.5<1 μM)”. Besides, for the setting “Trp peptide substrate”, the Emax is at least 150%.
`COc1cc(NC(=O)N2c3nc(-c4cccc(C(F)(F)F)c4)ccc3N3CCC[C@H]2C3)nc(OC)n1` [Example 31]: the Emax (Trp mass spectrometry assay) was at least 150%.
As to `O=C(Nc1nnc(-c2cccnc2)s1)N1c2nc(-c3cccc(C(F)(F)F)c3)ccc2N2CC[C@H]1C2` [Example 651], the “Tryp AVG EC1.5 (μM)” value under setting [3] was “A (EC1.5<1 μM)”. The Emax (Trp mass spectrometry assay) is at least 150%.
Take `Cc1cc(-c2ccc3c(n2)N(C(=O)Nc2cccnc2)[C@H]2CCN3C2)ccn1` [Example 498]: under setting [1], the “Tryp AVG EC1.5 (μM)” value is on record as “A (EC1.5<1 μM)”. In addition, the Emax (Trp peptide substrate) is at least 150%.
The corresponding values for `N#Cc1cccc(-c2ccc3c(n2)N(C(=O)Nc2ccccn2)[C@H]2CCCN3C2)c1` [Example 348] are “A (EC1.5<1 μM)” and at least 150%.
Take `CC(C)C(=O)c1cccc(NC(=O)N2c3nc(-c4cccc(C(F)(F)F)c4)ccc3N3CC[C@H]2C3)c1` [Example 740]: under setting [3], the “Tryp AVG EC1.5 (μM)” value is “A (EC1.5<1 μM)”. In addition, where the note is “Trp mass spectrometry assay”, the Emax is at least 150%.
For `N#Cc1cccc(-c2ccc3c(n2)N(C(=O)Nc2cccnc2)[C@@H]2CCCN3C2)c1` [Example 210], the “Tryp AVG EC1.5 (μM)” value under setting [2] is “B (EC1.5 1-25 μM)”. Under “Trp mass spectrometry assay”, the Emax is at least 150%.
For `COc1cncc(NC(=O)N2c3nc(-c4cccc(Cl)c4)ccc3N3CC[C@H]2C3)n1` [Example 121], the “Tryp AVG EC1.5 (μM)” value under setting [2] is “A (EC1.5<1 μM)”. In addition, the Emax (Trp mass spectrometry assay) is at least 150%.
On the same counts, the results for `COc1cc(NC(=O)N2c3nc(-c4cccc(C#N)c4)ccc3N3CCC[C@@H]2C3)ncn1` [Example 209] are “C (EC1.5>25 μM)” and below 150%.
Consider `O=C(Nc1cccnc1)N1c2nc(-c3cccc(C(F)(F)F)c3)ccc2N2C[C@@H](O)[C@H]1C2` [Example 663], for which, under setting [3], the “Tryp AVG EC1.5 (μM)” value is “A (EC1.5<1 μM)”. The Emax (Trp mass spectrometry assay) is at least 150%.
In the case of `O=C(Nc1cccc(-c2cnco2)c1)N1c2nc(N3CCCC(C(F)(F)F)C3)ccc2N2CC[C@H]1C2` (some centres unmarked) [Example 212], under setting [2], the “Tryp AVG EC1.5 (μM)” value is “A (EC1.5<1 μM)”. Moreover, where the note is “Trp mass spectrometry assay”, the Emax is at least 150%.
Consider `CC(C)(C)OC(=O)NCc1cccc(-c2ccc3c(n2)C(C(=O)Nc2ccncc2)[C@H]2CCN3C2)c1` (some centres unmarked) [Example 794], for which the “Tryp AVG EC1.5 (μM)” value under setting [3] is “B (EC1.5 1-25 μM)”. Also, the Emax (Trp mass spectrometry assay) is at least 150%.
As to `O=C(Nc1nccs1)N1c2nc(N3CCCC(C(F)(F)F)C3)ccc2N2CCC[C@H]1C2` (some centres unmarked) [Example 295], the “Tryp AVG EC1.5 (μM)” value under setting [1] was “A (EC1.5<1 μM)”. The Emax (Trp peptide substrate) is at least 150%.
For the compound `O=C(Nc1cnccn1)N1c2nc(-c3cccc(C(F)(F)F)c3)ccc2N2C[C@@H](O)[C@H]1C2` [Example 645], the “Tryp AVG EC1.5 (μM)” value under setting [3] was “A (EC1.5<1 μM)”. Where the note is “Trp mass spectrometry assay”, the Emax is at least 150%.
For `Cc1cc2c(NC(=O)N3c4nc(-c5cccc(C(F)(F)F)c5)ccc4N4CC[C@H]3C4)cccc2nn1` [Example 86], the Emax (Trp mass spectrometry assay) is at least 150%.
Still for that read-out and setting: next, `O=C(Nc1cncnc1)N1c2nc(-c3cccc(C(F)(F)F)c3)ccc2N2CC[C@H]1C2` [Example 23]: at least 150%.
